Data on three compounds can be found in ChEMBL document CHEMBL1131889, “Synthesis and acetylcholinesterase inhibitory activity of huperzine A-E2020 combined compound” (Bioorg Med Chem Lett, 1999).

Structures are written as SMILES.

The target in this assay is T1, Acetylcholinesterase (Rattus norvegicus, UniProt P37136).
T1 sequence (P37136 whole entry): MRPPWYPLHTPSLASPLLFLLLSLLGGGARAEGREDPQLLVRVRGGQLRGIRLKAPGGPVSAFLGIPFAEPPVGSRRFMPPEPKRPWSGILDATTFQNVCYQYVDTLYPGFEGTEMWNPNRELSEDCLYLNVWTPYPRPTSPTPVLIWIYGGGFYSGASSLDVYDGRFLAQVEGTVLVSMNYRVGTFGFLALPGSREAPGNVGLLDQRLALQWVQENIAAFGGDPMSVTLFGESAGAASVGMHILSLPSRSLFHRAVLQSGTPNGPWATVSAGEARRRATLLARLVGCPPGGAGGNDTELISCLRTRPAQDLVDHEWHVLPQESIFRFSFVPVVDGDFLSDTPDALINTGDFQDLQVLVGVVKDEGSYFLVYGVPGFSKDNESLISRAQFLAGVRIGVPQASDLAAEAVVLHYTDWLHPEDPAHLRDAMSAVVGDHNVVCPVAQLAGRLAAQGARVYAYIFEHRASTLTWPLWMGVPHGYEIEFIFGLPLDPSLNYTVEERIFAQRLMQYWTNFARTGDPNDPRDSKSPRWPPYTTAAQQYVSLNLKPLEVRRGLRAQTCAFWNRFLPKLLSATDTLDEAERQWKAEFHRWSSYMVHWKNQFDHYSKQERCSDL
The assay is described as follows: Inhibitory activity against Acetylcholinesterase (AChE) in rat brain hippocampal crude homogenate. The class given is tissue-based, Hippocampus.

`CC1(NCC2CCN(Cc3ccccc3)CC2)c2ccc(O)nc2CCC1O` (stereo not drawn): the concentration for half-maximal inhibition (IC50) (commonly the concentration that gives 50% inhibition) is over 190 µM.
Then `COc1ccc2c(n1)CCC(OC)C2(C)NC(=O)C1CCN(Cc2ccccc2)CC1` (stereo not drawn), with 17.2 µM; and `COc1ccc2c(n1)CCC(OC)C2(C)NCC1CCN(Cc2ccccc2)CC1` (stereo not drawn), with over 177 µM.
